ChEMBL document CHEMBL3769312, “2-Sulfonamidopyridine C-region analogs of 2-(3-fluoro-4-methylsulfonamidophenyl)propanamides as potent TRPV1 antagonists” (Bioorg Med Chem, 2016)

Assays:
[1] = biological target: T1, Transient receptor potential cation channel subfamily V member 1 (Homo sapiens, UniProt Q8NER1); assay: Agonist activity at human TRPV1 expressed in CHO cells assessed as (45)Ca2+ uptake after 5 mins by liquid scintillation counting analysis; assay type: cell-based
[2] = biological target: T1, Transient receptor potential cation channel subfamily V member 1; assay: Displacement of [3H]RTX from human TRPV1 expressed in CHO cells after 60 mins by scintillation counting analysis; assay type: cell-based
[3] = biological target: T1, Transient receptor potential cation channel subfamily V member 1; assay: Antagonist activity at human TRPV1 expressed in CHO cells assessed as inhibition of capsaicin-induced (45)Ca2+ uptake after 5 mins by liquid scintillation counting analysis; assay type: cell-based
Mus musculus = assay: Analgesic activity in ip dosed formalin-induced mouse pain model after 20 to 30 mins; assay type: functional

T1 sequence (Q8NER1 whole entry): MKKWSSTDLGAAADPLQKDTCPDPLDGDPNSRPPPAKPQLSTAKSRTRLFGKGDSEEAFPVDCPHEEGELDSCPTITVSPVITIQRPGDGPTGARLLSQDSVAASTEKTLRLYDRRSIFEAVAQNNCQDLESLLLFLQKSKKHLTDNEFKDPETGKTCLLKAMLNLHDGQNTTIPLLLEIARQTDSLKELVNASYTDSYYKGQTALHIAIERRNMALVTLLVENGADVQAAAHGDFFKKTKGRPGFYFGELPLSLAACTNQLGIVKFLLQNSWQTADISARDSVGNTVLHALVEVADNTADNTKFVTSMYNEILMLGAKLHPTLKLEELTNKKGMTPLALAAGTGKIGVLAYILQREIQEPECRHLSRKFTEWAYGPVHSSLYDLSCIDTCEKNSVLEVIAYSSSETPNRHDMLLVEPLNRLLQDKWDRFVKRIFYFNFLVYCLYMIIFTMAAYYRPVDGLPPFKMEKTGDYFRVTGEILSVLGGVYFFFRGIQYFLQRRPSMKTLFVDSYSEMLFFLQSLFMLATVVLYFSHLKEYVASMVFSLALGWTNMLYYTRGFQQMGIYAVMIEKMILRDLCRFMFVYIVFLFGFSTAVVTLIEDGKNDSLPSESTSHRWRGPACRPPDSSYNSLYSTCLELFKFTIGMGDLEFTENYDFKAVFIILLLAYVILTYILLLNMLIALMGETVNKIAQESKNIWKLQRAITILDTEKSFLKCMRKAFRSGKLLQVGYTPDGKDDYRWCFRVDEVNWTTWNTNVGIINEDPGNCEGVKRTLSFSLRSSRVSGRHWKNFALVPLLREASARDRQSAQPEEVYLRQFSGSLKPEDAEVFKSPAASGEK

| SMILES | EC50 [1] | Ki ([2]; read-out: Ki) | Ki ([3]; read-out: Ki) | Activity (Mus musculus) | ED50 (Mus musculus) | Ki ([2]; cho) | Ki ([3]; cho) |
| --- | --- | --- | --- | --- | --- | --- | --- |
| Cc1ccc(CN(c2nc(C(F)(F)F)ccc2CNC(=O)C(C)c2ccc(NS(C)(=O)=O)c(F)c2)S(=O)(=O)c2ccc(F)cc2)cc1 (configuration not stated) | Not Active | 3.28 nM | 7.08 nM | – | – | – | – |
| CC(C(=O)NCc1ccc(C(F)(F)F)nc1N(Cc1ccccc1)S(=O)(=O)c1ccc(F)cc1)c1ccc(NS(C)(=O)=O)c(F)c1 (configuration not stated) | Not Active | 1.56 nM | 3.87 nM | – | – | – | – |
| CC(C(=O)NCc1ccc(C(F)(F)F)nc1N(c1ccc(F)cc1)S(=O)(=O)c1ccccc1)c1ccc(NS(C)(=O)=O)c(F)c1 (configuration not stated) | Not Active | 7.3 nM | 11.8 nM | – | – | – | – |
| CC(C(=O)NCc1ccc(C(F)(F)F)nc1N(C(C)C)S(=O)(=O)c1ccccc1)c1ccc(NS(C)(=O)=O)c(F)c1 (configuration not stated) | Not Active | 410 nM | 27.6 nM | – | – | – | – |
| CC(C(=O)NCc1ccc(C(F)(F)F)nc1N(Cc1ccccc1)S(=O)(=O)C(C)C)c1ccc(NS(C)(=O)=O)c(F)c1 (configuration not stated) | Not Active | 18.1 nM | 6.19 nM | – | – | – | – |
| CC(C(=O)NCc1ccc(C(F)(F)F)nc1N(Cc1ccccc1)S(=O)(=O)c1ccccc1)c1ccc(NS(C)(=O)=O)c(F)c1 (configuration not stated) | Not Active | 1.99 nM | 5.9 nM | Dose-dependent effect | 15.6 mg/kg | – | – |
| CC(C(=O)NCc1ccc(C(F)(F)F)nc1N(Cc1ccccc1)S(C)(=O)=O)c1ccc(NS(C)(=O)=O)c(F)c1 (configuration not stated) | Not Active | 101 nM | 25 nM | – | – | – | – |
| CC(C(=O)NCc1ccc(C(F)(F)F)nc1N(c1ccccc1)S(=O)(=O)c1ccccc1)c1ccc(NS(C)(=O)=O)c(F)c1 (configuration not stated) | Not Active | 18.3 nM | 6 nM | – | – | – | – |
| COc1ccc(CN(c2nc(C(F)(F)F)ccc2CNC(=O)C(C)c2ccc(NS(C)(=O)=O)c(F)c2)S(=O)(=O)c2ccc(F)cc2)cc1 (configuration not stated) | Not Active | 1.65 nM | 7.9 nM | – | – | – | – |
| CC(C(=O)NCc1ccc(C(F)(F)F)nc1N(Cc1ccc(Cl)cc1)S(=O)(=O)c1ccc(F)cc1)c1ccc(NS(C)(=O)=O)c(F)c1 (configuration not stated) | Not Active | 0.9 nM | 6 nM | – | – | – | – |
| CC1CCN(c2nc(C(F)(F)F)ccc2CNC(=O)[C@@H](C)c2ccc(NS(C)(=O)=O)c(F)c2)CC1 | Not Active | 2.95 nM | 1.26 nM | – | – | – | – |
| CCCS(=O)(=O)N(Cc1ccccc1)c1nc(C(F)(F)F)ccc1CNC(=O)C(C)c1ccc(NS(C)(=O)=O)c(F)c1 (configuration not stated) | Not Active | – | – | – | – | – | – |
| COc1ccc(CN(c2nc(C(F)(F)F)ccc2CNC(=O)C(C)c2ccc(NS(C)(=O)=O)c(F)c2)S(=O)(=O)c2ccccc2)cc1 (configuration not stated) | Not Active | 7.5 nM | 2.14 nM | – | – | – | – |
| CC(C(=O)NCc1ccc(C(F)(F)F)nc1N(Cc1ccc(F)cc1)S(=O)(=O)c1ccccc1)c1ccc(NS(C)(=O)=O)c(F)c1 (configuration not stated) | Not Active | 2.32 nM | 7.37 nM | – | – | – | – |
| CC(C(=O)NCc1ccc(C(F)(F)F)nc1N(CC1CCCCC1)S(=O)(=O)c1ccccc1)c1ccc(NS(C)(=O)=O)c(F)c1 (configuration not stated) | Not Active | 2.3 nM | 10 nM | – | – | – | – |
| CC(C(=O)NCc1ccc(C(F)(F)F)nc1N(Cc1ccc(Cl)cc1)S(=O)(=O)c1ccccc1)c1ccc(NS(C)(=O)=O)c(F)c1 (configuration not stated) | Not Active | 1.29 nM | 5.77 nM | – | – | – | – |
| C[C@H](C(=O)NCc1ccc(C(F)(F)F)nc1N(Cc1ccccc1)S(=O)(=O)c1ccccc1)c1ccc(NS(C)(=O)=O)c(F)c1 | Not Active | 0.54 nM | 1.81 nM | – | – | – | – |
| CC(C(=O)NCc1ccc(C(F)(F)F)nc1N(Cc1ccc(F)cc1)S(=O)(=O)c1ccc(F)cc1)c1ccc(NS(C)(=O)=O)c(F)c1 (configuration not stated) | Not Active | 0.71 nM | 2.99 nM | – | – | – | – |
| CC(C(=O)NCc1ccc(C(F)(F)F)nc1NS(=O)(=O)c1ccccc1)c1ccc(NS(C)(=O)=O)c(F)c1 (configuration not stated) | Not Active | – | – | – | – | Active | Active |
| CCS(=O)(=O)N(Cc1ccccc1)c1nc(C(F)(F)F)ccc1CNC(=O)C(C)c1ccc(NS(C)(=O)=O)c(F)c1 (configuration not stated) | Not Active | 38 nM | 11.9 nM | – | – | – | – |
| CC(C(=O)NCc1ccc(C(F)(F)F)nc1N(Cc1ccccc1)S(=O)(=O)c1ccc(Cl)cc1)c1ccc(NS(C)(=O)=O)c(F)c1 (configuration not stated) | Not Active | 0.76 nM | 8.5 nM | – | – | – | – |
| CC(C(=O)NCc1ccc(C(F)(F)F)nc1N(C)S(=O)(=O)c1ccccc1)c1ccc(NS(C)(=O)=O)c(F)c1 (configuration not stated) | Not Active | 698 nM | 100 nM | – | – | – | – |
| Cc1ccc(CN(c2nc(C(F)(F)F)ccc2CNC(=O)C(C)c2ccc(NS(C)(=O)=O)c(F)c2)S(=O)(=O)c2ccccc2)cc1 (configuration not stated) | Not Active | 1.85 nM | 5.54 nM | – | – | – | – |
| CC1CCN(c2nc(C(F)(F)F)ccc2CNC(=O)C(C)c2ccc(NS(C)(=O)=O)c(F)c2)CC1 (configuration not stated) | Not Active | 7.9 nM | 2.22 nM | – | – | – | – |
